In the assay the test system is CEM cells HIV-1 protection, formazan growth assay. The experiment in a line: NCI AIDS Antiviral Assay. As to conditions: for IC50: measured here: growth of uninfected CEM cells. A digest of the protocol:
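Steps: treat uninfected and HIV-1-infected human CEM cells at five drug levels; quantify growth by soluble formazan; retest any compound reaching 50% protection; classify actives from the retest.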

Values joined by “and” are separate entries in the source; they are usually repeats but may differ in a detail not shown here. Identical values can stand only once. Active and inactive are the calls of the source.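 How the source made its calls: active means compounds giving half or more protection of infected cells from virus-caused growth loss, again on retest; inactive means the rest.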 Where a SMILES comes first, the peptide text is derived from it. The star is where a group is joined. Fmoc = O=C(OCC1c2ccccc2-c2ccccc21)*; OtBu = CC(C)(C)O*

EC50, IC50 and outcome data for 71 molecules are collected here from PubChem BioAssay AID179 (DTP/NCI, 2004).

In general, EC50 refers to the midpoint of the concentration-response curve. By IC50 is commonly meant the point on the concentration scale where inhibition reaches its midpoint. Consider `O=C(O)c1ccc2c(c1)S(=O)(=O)NC2=O`, for which the EC50 was > 1100 µM and the half-inhibitory concentration (IC50) is > 1100 µM. Take `Cc1cc(NC(=O)Nc2ccc(N=Nc3cc(S(=O)(=O)[O-])c4cccc(S(=O)(=O)[O-])c4c3)c(C)c2)ccc1N=Nc1cc(S(=O)(=O)[O-])c2cccc(S(=O)(=O)[O-])c2c1.[Ga]`: the EC50 was > 75.9 µM and the half-inhibitory concentration (IC50) turned out to be 13.5 µM. Take `COc1cc2c(c(O)c1C)C(=O)CC(c1ccccc1)O2` (configuration not stated): the EC50 is > 35.5 µM and the concentration for half-maximal inhibition (IC50) was > 35.5 µM. For the molecule `CC[N+](C)(CC)CCNC(=O)C(O)(c1ccccc1)c1ccccc1`, the EC50 is > 200 µM and the half-maximal inhibitory concentration (IC50) was > 200 µM. As to `OC(CC(CC(O)(C(F)(F)Cl)C(F)(F)Cl)=NNc1ccccc1)(C(F)(F)Cl)C(F)(F)Cl`, the EC50 was > 200 µM and the IC50 stood at 2.14 µM. Take `S=C1N(c2ccc(Br)cc2)C2=Nc3ccccc3SC(=C2N=Nc2ccc(Br)cc2)N1c1ccc(Cl)cc1`: the EC50 was > 32.4 µM and the 50% inhibitory concentration (IC50) is 6.17 µM.

`Cn1c(N)c(N=Nc2ccc(S(=O)(=O)Nc3ccccn3)cc2)c(=O)n(C)c1=O`: the result was inactive.

Turning to `CCOP(=O)(OCC)OC1c2[nH]ccc2-c2cc(C(=O)OC)[nH]c2C1OC` (configuration not stated), the EC50 was > 200 µM and the IC50 was found to be 102 µM. Turning to `CC1(C)CC2CCC(O)C2C(CCO)N1` (configuration not stated), the EC50 is > 200 µM and the IC50 is > 200 µM.

`C[N+]1([O-])CCOCC1`: the EC50 is > 200 µM and the IC50 was > 200 µM. Regarding `COC1=C(N)C(=O)c2nc(C)ccc2C1=O`, the outcome was inactive. Take `CC1=N/C(=C\c2ccccc2F)C(=O)O1`: the EC50 is > 631 µM and the IC50 was > 631 µM. For the molecule `CCCCCCCCCCNC(=S)OCCCC`, the result was inactive. Turning to `CC1(C)CCc2cc3c(cc2O1)OCCC3=O`, the result was inactive. `CCc1ccccc1NC(=O)C(=O)C(C#N)c1ccccc1Cl` (configuration not stated): the EC50 was > 380 µM and the IC50 was > 380 µM. For the molecule `CC(=O)c1c2c(cc3c1CC1(Cc4ccccc4C1=O)C3)CCC2` (configuration not stated), the EC50 is > 200 µM and the half-inhibitory concentration (IC50) worked out at 17.8 µM. Turning to `Cc1c2c(n3c(nc4ccccc43)c1C#N)SCC2`, the EC50 was > 200 µM and the IC50 is > 200 µM.

Take `O=C(c1ccc(Cl)cc1)N1CC1`: the EC50 is > 200 µM and the IC50 came to 81.3 µM. For the molecule `Cc1ccc(S(=O)(=O)N2C[C@](O)(c3ccccc3)[C@H]2C)cc1`, the EC50 is > 200 µM and the IC50 is 195 µM.

With `CC(C)C1OC23CCCCC2C(C#N)(C#N)C1(C#N)C(=N)O3` (configuration not stated), the EC50 is > 200 µM and the half-inhibitory concentration (IC50) amounted to 5.89 µM. For `O=C1CCCCCCCCCC(=O)Nc2ccccc2-c2ccccc2N1`, the outcome was inactive. For `O=c1c2cc([N+](=O)[O-])ccc2n2n1CCCC2`, the EC50 was > 200 µM and the concentration for half-maximal inhibition (IC50) was > 200 µM.

For the molecule `NC(=O)N/N=C(\Cc1nc2ccc(C(=O)c3ccccc3)cc2[nH]c1=O)C(=O)Nc1ccc(Br)cc1`, the outcome was inactive. Regarding `Nc1ccc2c(C(F)(F)F)cc(=O)oc2c1`, the EC50 was > 22.9 µM and the half-maximal inhibitory concentration (IC50) was > 22.9 µM. `CO[C@@]12[C@@H]3N[C@@H]3CN1C1=C(C(=O)C(NCCc3ccccn3)=C(C)C1=O)[C@@H]2COC(N)=O`: the EC50 was > 200 µM and the IC50 is 2 µM.

On to `COc1cc2c(c(C3(O)C(=O)N(C)c4ccccc43)c1OC)OCO2` (configuration not stated), for which the EC50 is > 200 µM and the IC50 was > 200 µM. For the molecule `COc1ccc(C2(Br)C(=O)NN=C2C)cc1` (configuration not stated), the EC50 is > 200 µM and the IC50 was 10.7 µM. In the same order, the values of `CC(C)C(NC(=O)OCC1c2ccccc2-c2ccccc21)C(=O)NC(CCC(=O)OC(C)(C)C)C(=O)OC(C)(C)C` (configuration not stated) (Fmoc-Val-Glu(OtBu)-OtBu; configuration not given here) are > 200 µM and 24.5 µM. Turning to `CN1C2CC(C#N)C1C=CC2=O` (configuration not stated), the EC50 is > 200 µM; the IC50 was 32.4 µM and 107 µM. Consider `C[N+]1(C)C/C(=C\C=C\c2ccccc2)C(=O)/C(=C/C=C/c2ccccc2)C1`, for which the EC50 was > 7.76 µM and the IC50 was > 7.76 µM. `Oc1ccccc1/C=C/c1csnn1`: the EC50 is > 178 µM and the IC50 was > 178 µM. `COc1ccccc1NC(=O)C(=O)C(c1cnc2ccc([N+](=O)[O-])cc2n1)[N+](=O)[O-]` (configuration not stated): the EC50 is > 316 µM and the IC50 is 89.1 µM. In the case of `N#Cc1[nH]c(=O)n(-c2ccc([N+](=O)[O-])cc2)c1N`, the EC50 was > 200 µM and the IC50 is > 200 µM.

Consider `CC(C)CCC1(CCSC#N)C(=O)NC(=O)NC1=O`, for which the EC50 was > 200 µM and the half-maximal inhibitory concentration (IC50) turned out to be 37.2 µM. As for `O=C(Cc1ccccc1)N=Nc1c(O)[nH]c2ccccc12`, the EC50 is > 200 µM and the IC50 is > 200 µM.

Take `O=C([CH-]C(=O)c1ccccc1)c1ccccc1.O=C([CH-]C(=O)c1ccccc1)c1ccccc1.[CH2-]CCC.[CH2-]CCC.[Sn+4]`: the EC50 was > 7.76 µM and the half-inhibitory concentration (IC50) turned out to be 0.427 µM. `CCCCCCCCCC(=O)Oc1c2ccoc2cc2oc(=O)ccc12`: the EC50 was > 63.1 µM and the IC50 was > 63.1 µM. On to `S=C1NCCNC(=S)SS1`, for which the EC50 is > 34.7 µM and the IC50 is > 34.7 µM. As for `N#CCCN(CCC#N)c1ccc(/C=C(\NC(=O)c2cc([N+](=O)[O-])ccc2Cl)C(=O)Nc2ccccc2)cc1`, the EC50 was > 13.2 µM and the IC50 was > 13.2 µM. Turning to `O=c1[nH]ncc2c1nnn2C1CCC(CO)O1` (configuration not stated), the EC50 is > 200 µM and the IC50 was > 200 µM. Regarding `O=C1c2ccccc2NC(=O)C2C1C(c1ccccc1)CC2(O)c1ccccc1` (configuration not stated), the EC50 is > 200 µM and the IC50 turned out to be 33.1 µM. With `Cc1cc2c(c(C=NCc3ccccc3)c1)OC1(C=C2)Oc2ccccc2C(=O)N1C` (configuration not stated), the EC50 was > 200 µM and the IC50 was found to be 52.5 µM. For the molecule `O=C(Cn1c2ccc(Br)cc2c2nc3ccccc3nc21)NCc1ccccc1`, the EC50 was > 100 µM and the IC50 was > 100 µM. As for `Cc1nn(-c2ccccc2)c(CC(Cc2c([N+](=O)[O-])c(C)nn2-c2ccccc2)c2ccccc2)c1[N+](=O)[O-]`, the EC50 is > 10 µM and the half-maximal inhibitory concentration (IC50) was > 10 µM. Consider `CC1=C(/C=C/C2=CC(=C\C(=O)O)/CC(C3=C(C)CCCC3(C)C)C2)C(C)(C)CCC1` (configuration not stated), for which the result was inactive. Consider `Cc1ccccc1N1C(=O)C(=O)c2cccc(C)c21`, for which the EC50 is > 200 µM and the 50% inhibitory concentration (IC50) was 33.1 µM. For `O=C1c2cccc([N+](=O)[O-])c2C(=O)N1CC[P+](c1ccccc1)(c1ccccc1)c1ccccc1`, the EC50 is > 200 µM and the concentration for half-maximal inhibition (IC50) is > 200 µM. On to `O=C(Nc1ccccc1)OCCN=C1c2ccccc2CCc2ccccc21`, for which the EC50 was > 200 µM and the IC50 was 18.6 µM. With `CC1(C)CCC(=O)c2c(O)ccc(O)c21`, the result was inactive. On to `O=C(/C=C\c1ccccc1O)c1ccc(O)cc1O`, for which the concentration giving a half-maximal response (EC50) was > 72.4 µM and the IC50 amounted to 7.24 µM. With `N#Cc1nc(-c2ccco2)oc1N`, the EC50 is > 200 µM and the IC50 is > 200 µM. Consider `CCOC(=O)C(=Cc1ccccc1[N+](=O)[O-])C(=O)OCC`, for which the EC50 was > 324 µM and the IC50 is 5.89 µM.

On to `CC(=O)NC(CCCCNC(=O)OCc1ccccc1)C(=O)NCc1ccccc1` (configuration not stated), for which the EC50 was > 87.1 µM and the IC50 is > 87.1 µM. As for `C=C1C(C)C2C(Cc3ccccc3)NC(=O)C23C(OC(C)=O)/C=C/C(C)(O)CC(C)C/C=C/C3C1O` (configuration not stated), the EC50 was > 2 µM and the concentration for half-maximal inhibition (IC50) worked out at 0.0977 µM. For `C=CCc1ccc(Oc2cc(CC=C)c3c(c2O)O[C@@H](CO)[C@H]3c2ccc(O)c(-c3cc(CC=C)ccc3O)c2)cc1`, the EC50 is > 100 µM and the 50% inhibitory concentration (IC50) was > 100 µM. As for `CNc1nc2n(CCO)c(-c3ccccc3)c(-c3ccccc3)nc-2c(=O)n1`, the EC50 is > 50.1 µM and the IC50 came out at 26.3 µM. As to `Cc1cn(C2C=CC(CO)(C(F)(F)F)O2)c(=O)[nH]c1=O` (configuration not stated), the EC50 is > 200 µM and the IC50 was > 200 µM.

Turning to `CCOC(=O)Nc1nc2cc(C(=O)OC)n(C)c2s1`, the EC50 is > 200 µM and the IC50 was > 200 µM. As to `N#CC12C(=O)N3C(=NC(c4ccccc4)NC3c3ccccc3)C1(C#N)C(c1ccccc1)NC1=C2CCC1` (configuration not stated), the EC50 was > 200 µM and the IC50 was > 200 µM. In the case of `C[C@H](CCC(=O)O)[C@H]1CC[C@H]2[C@@H]3[C@@H](O)C[C@@H]4C[C@H](O)CC[C@]4(C)[C@H]3C[C@H](O)[C@]12C`, the EC50 was > 200 µM and the concentration for half-maximal inhibition (IC50) was > 200 µM.

With `O=C(S)C(=O)Cc1nnn(-c2ccccc2)c1-c1ccccc1`, the EC50 was > 245 µM and the IC50 was > 245 µM. For `CC(SCC(=O)O)=[N+]1CCCCC1`, the EC50 was > 891 µM and the 50% inhibitory concentration (IC50) is > 891 µM.

Take `O=C(O)c1c(CC(Cc2ccc3c(c2)CCC3)C(=O)O)ccc2c1CCC2` (configuration not stated): the EC50 is > 200 µM and the concentration for half-maximal inhibition (IC50) was determined as 145 µM. As to `CC1(C)OCC(C2OC(=O)C(OCc3ccccc3)=C2OCc2ccccc2)O1` (configuration not stated), the EC50 was > 200 µM and the IC50 is > 200 µM. For `c1cc[c]([Pb]([c]2ccccc2)[c]2ccccc2)cc1`, the result was inactive. Turning to `CN1C(=O)N(C)C(O)C1O` (configuration not stated), the EC50 is > 200 µM and the 50% inhibitory concentration (IC50) is > 200 µM. For the molecule `CC(=O)[C@@]1(c2ccccc2)N(C(=O)c2ccccc2)[C@@]1(C)C(=O)c1ccccc1`, the EC50 is > 646 µM and the half-maximal inhibitory concentration (IC50) is 562 µM.

Regarding `N/C(=N/N=C\c1nccc2ccccc12)NO`, the outcome was inactive. With `CN1C(=O)OC2OC(C)(c3ccc(S(=O)(=O)c4ccccc4)cc3)C(=O)CC21` (configuration not stated), the EC50 is > 123 µM and the IC50 is > 123 µM. Take `CCOC(=O)/C=C1\Nc2ccccc2C(c2ccccc2)=NC1OC(C)=O` (configuration not stated): the EC50 is > 20 µM and the IC50 was > 20 µM.

Take `Cc1cc(Cl)ccc1NC(=O)/C(Cc1nc2ccc(C(=O)c3ccccc3)cc2[nH]c1=O)=N/NC(=O)c1ccncc1`: the EC50 is > 224 µM and the IC50 was determined as 75.9 µM.
